Test system: T. cruzi Tulahuen amastigotes in L-6 cells, CPRG absorbance
Experiment: intracellular Chagas parasite inhibition in myoblasts – Tulahuen strain, L-6 host cells, dry powder, dose response (AID 651890)

Structure (SMILES): C[C@@H]1CN([C@@H](C)CO)C(=O)c2cccc(NC(=O)c3ccncc3)c2O[C@H]1CN(C)Cc1ccc(Oc2ccccc2)cc1
- IC50: 0.039 µM

— PubChem BioAssay AID651890 (Broad Institute, 2012)
